Measured values published in patent US11642336B2, “5-HT2A agonists for use in treatment of depression” (priority 2019, dated 2023).
Marks after values point to notes of the source that are not given here.

biological target: human 5-HT2A (Homo sapiens (Human), UniProt P28223); assay: cell-based; format: cell-based; conditions: % of the Rmax of 5-HT

Compound | 5-HT2A Rmax ± S.E.M
CCOc1cc(C(F)(F)F)c(OC)cc1[C@H]1CCCNC1.Cl [Compound 29, (R)-3-(2-ethoxy-5-methoxy-4-(trifluoromethyl)phenyl)piperidine hydrochloride] | 77 ± 7%
CCOc1cc([C@H]2CCCNC2)c(OC)cc1CC.Cl [Compound 33, (R)-3-(5-ethoxy-4-ethyl-2-methoxyphenyl)piperidine hydrochloride] | 89 ± 4%
CCOc1cc([C@H]2CCCNC2)c(OCC)cc1CC.Cl [Compound 40, (R)-3-(2,5-diethoxy-4-ethylphenyl)piperidine hydrochloride] | ~61-74^c %
CCOc1cc(CC)c(OC)cc1[C@H]1CCCNC1 [Compound 42, (R)-3-(2-ethoxy-4-ethyl-5-methoxyphenyl)piperidine] | 80 ± 9%
COc1cc(C(F)(F)F)c(SC)cc1[C@H]1CCCNC1.Cl [Compound 44, (R)-3-(2-methoxy-5-(methylthio)-4-(trifluoromethyl)phenyl)piperidine hydrochloride] | 96 ± 6%
CCSc1cc([C@H]2CCCNC2)c(OC)cc1C(F)(F)F.Cl [Compound 46, (R)-3-(2-methoxy-5-(ethylthio)-4-(trifluoromethyl)phenyl)piperidine hydrochloride] | 97 ± 2%
COc1cc([C@H]2CCCNC2)ccc1C(F)(F)F.Cl [Compound 48, (R)-3-(3-methoxy-4-(trifluoromethyl)phenyl)piperidine hydrochloride] | 68 ± 7%
COc1cc([C@@H]2CCCNC2)ccc1C(F)(F)F.Cl [Compound 49, (S)-3-(3-methoxy-4-(trifluoromethyl)phenyl)piperidine Hydrochloride] | 65 ± 3%
COc1cc(C(F)(F)F)c(F)cc1[C@H]1CCCNC1.Cl [Compound 50, (R)-3-(5-fluoro-2-methoxy-4-(trifluoromethyl)phenyl)piperidine hydrochloride] | 78 ± 6%

same assay, conditions: Ca2+/Fluo-4 assay; bounds are conservative estimates

Compound | Selectivity EC50 5-HT2C/EC50 5-HT2A
CCOc1cc([C@H]2CCCNC2)c(OC)cc1CC.Cl [Compound 33, (R)-3-(5-ethoxy-4-ethyl-2-methoxyphenyl)piperidine hydrochloride] | >10^e
CCOc1cc([C@H]2CCCNC2)c(OCC)cc1CC.Cl [Compound 40, (R)-3-(2,5-diethoxy-4-ethylphenyl)piperidine hydrochloride] | >3^e
CCOc1cc(CC)c(OC)cc1[C@H]1CCCNC1 [Compound 42, (R)-3-(2-ethoxy-4-ethyl-5-methoxyphenyl)piperidine] | >10^e
COc1cc(C(F)(F)F)c(SC)cc1[C@H]1CCCNC1.Cl [Compound 44, (R)-3-(2-methoxy-5-(methylthio)-4-(trifluoromethyl)phenyl)piperidine hydrochloride] | 9.3
CCSc1cc([C@H]2CCCNC2)c(OC)cc1C(F)(F)F.Cl [Compound 46, (R)-3-(2-methoxy-5-(ethylthio)-4-(trifluoromethyl)phenyl)piperidine hydrochloride] | 7.4
COc1cc([C@H]2CCCNC2)ccc1C(F)(F)F.Cl [Compound 48, (R)-3-(3-methoxy-4-(trifluoromethyl)phenyl)piperidine hydrochloride] | >50^e
COc1cc([C@@H]2CCCNC2)ccc1C(F)(F)F.Cl [Compound 49, (S)-3-(3-methoxy-4-(trifluoromethyl)phenyl)piperidine Hydrochloride] | 0.51
COc1cc(C(F)(F)F)c(F)cc1[C@H]1CCCNC1.Cl [Compound 50, (R)-3-(5-fluoro-2-methoxy-4-(trifluoromethyl)phenyl)piperidine hydrochloride] | 2.8

same assay, conditions: agonist potency, n = 3-4; read-out: 5-HT2A EC50

Compound | EC50
CCOc1cc(C(F)(F)F)c(OC)cc1[C@H]1CCCNC1.Cl [Compound 29, (R)-3-(2-ethoxy-5-methoxy-4-(trifluoromethyl)phenyl)piperidine hydrochloride] | 410 nM
CCOc1cc([C@H]2CCCNC2)c(OC)cc1CC.Cl [Compound 33, (R)-3-(5-ethoxy-4-ethyl-2-methoxyphenyl)piperidine hydrochloride] | 1100 nM
CCOc1cc([C@H]2CCCNC2)c(OCC)cc1CC.Cl [Compound 40, (R)-3-(2,5-diethoxy-4-ethylphenyl)piperidine hydrochloride] | 7000 to 10000 nM
CCOc1cc(CC)c(OC)cc1[C@H]1CCCNC1 [Compound 42, (R)-3-(2-ethoxy-4-ethyl-5-methoxyphenyl)piperidine] | 1500 nM
COc1cc(C(F)(F)F)c(SC)cc1[C@H]1CCCNC1.Cl [Compound 44, (R)-3-(2-methoxy-5-(methylthio)-4-(trifluoromethyl)phenyl)piperidine hydrochloride] | 71 nM
CCSc1cc([C@H]2CCCNC2)c(OC)cc1C(F)(F)F.Cl [Compound 46, (R)-3-(2-methoxy-5-(ethylthio)-4-(trifluoromethyl)phenyl)piperidine hydrochloride] | 150 nM
COc1cc([C@H]2CCCNC2)ccc1C(F)(F)F.Cl [Compound 48, (R)-3-(3-methoxy-4-(trifluoromethyl)phenyl)piperidine hydrochloride] | 1800 nM
COc1cc([C@@H]2CCCNC2)ccc1C(F)(F)F.Cl [Compound 49, (S)-3-(3-methoxy-4-(trifluoromethyl)phenyl)piperidine Hydrochloride] | 2500 nM
COc1cc(C(F)(F)F)c(F)cc1[C@H]1CCCNC1.Cl [Compound 50, (R)-3-(5-fluoro-2-methoxy-4-(trifluoromethyl)phenyl)piperidine hydrochloride] | 640 nM

same assay, conditions: agonist potency, n = 3-4; read-out: 5-HT2A [pEC50 ± S.E.M.] (converted)

Compound | EC50
CCOc1cc([C@H]2CCCNC2)c(OC)cc1CC.Cl [Compound 33, (R)-3-(5-ethoxy-4-ethyl-2-methoxyphenyl)piperidine hydrochloride] | 1120 nM
CCSc1cc([C@H]2CCCNC2)c(OC)cc1C(F)(F)F.Cl [Compound 46, (R)-3-(2-methoxy-5-(ethylthio)-4-(trifluoromethyl)phenyl)piperidine hydrochloride] | 145 nM
COc1cc([C@@H]2CCCNC2)ccc1C(F)(F)F.Cl [Compound 49, (S)-3-(3-methoxy-4-(trifluoromethyl)phenyl)piperidine Hydrochloride] | 2450 nM

biological target: 5-HT2C (Homo sapiens (Human), UniProt P28335); assay: Ca2+/Fluo-4 assay, stable h5-HT2C-HEK293 cell line; format: cell-based; conditions: % of the Rmax of 5-HT;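 also: Agonist-induced intracellular Ca2+ rise read by Fluo-4 fluorescence in HEK293 cells stably expressing the human 5-HT2C receptor, each compound run in duplicate on three or more occasions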
Sequence (P28335 whole entry, looked up): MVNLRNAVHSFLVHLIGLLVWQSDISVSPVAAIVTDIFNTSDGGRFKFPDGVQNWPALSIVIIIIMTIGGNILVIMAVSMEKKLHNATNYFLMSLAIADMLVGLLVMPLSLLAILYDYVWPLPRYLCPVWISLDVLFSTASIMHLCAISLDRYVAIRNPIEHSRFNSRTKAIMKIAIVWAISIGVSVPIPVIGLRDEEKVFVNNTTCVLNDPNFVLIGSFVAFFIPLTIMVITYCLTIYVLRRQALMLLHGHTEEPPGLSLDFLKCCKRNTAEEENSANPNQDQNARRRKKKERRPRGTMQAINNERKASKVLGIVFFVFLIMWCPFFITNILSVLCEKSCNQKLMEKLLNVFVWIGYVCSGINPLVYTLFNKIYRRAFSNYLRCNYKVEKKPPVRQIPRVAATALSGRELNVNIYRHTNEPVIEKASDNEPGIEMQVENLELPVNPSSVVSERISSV

Compound | 5-HT2C Rmax ± S.E.M
COc1cc(C(F)(F)F)c(SC)cc1[C@H]1CCCNC1.Cl [Compound 44, (R)-3-(2-methoxy-5-(methylthio)-4-(trifluoromethyl)phenyl)piperidine hydrochloride] | 50 ± 2%
CCSc1cc([C@H]2CCCNC2)c(OC)cc1C(F)(F)F.Cl [Compound 46, (R)-3-(2-methoxy-5-(ethylthio)-4-(trifluoromethyl)phenyl)piperidine hydrochloride] | 53 ± 5%
COc1cc([C@@H]2CCCNC2)ccc1C(F)(F)F.Cl [Compound 49, (S)-3-(3-methoxy-4-(trifluoromethyl)phenyl)piperidine Hydrochloride] | 35 ± 3%
COc1cc(C(F)(F)F)c(F)cc1[C@H]1CCCNC1.Cl [Compound 50, (R)-3-(5-fluoro-2-methoxy-4-(trifluoromethyl)phenyl)piperidine hydrochloride] | 40 ± 8%

same assay, conditions: agonist potency, n = 3-4; read-out: 5-HT2C EC50

Compound | EC50
CCOc1cc(C(F)(F)F)c(OC)cc1[C@H]1CCCNC1.Cl [Compound 29, (R)-3-(2-ethoxy-5-methoxy-4-(trifluoromethyl)phenyl)piperidine hydrochloride] | 2700 nM
COc1cc(C(F)(F)F)c(SC)cc1[C@H]1CCCNC1.Cl [Compound 44, (R)-3-(2-methoxy-5-(methylthio)-4-(trifluoromethyl)phenyl)piperidine hydrochloride] | 660 nM
CCSc1cc([C@H]2CCCNC2)c(OC)cc1C(F)(F)F.Cl [Compound 46, (R)-3-(2-methoxy-5-(ethylthio)-4-(trifluoromethyl)phenyl)piperidine hydrochloride] | 1100 nM
COc1cc([C@@H]2CCCNC2)ccc1C(F)(F)F.Cl [Compound 49, (S)-3-(3-methoxy-4-(trifluoromethyl)phenyl)piperidine Hydrochloride] | 1300 nM
COc1cc(C(F)(F)F)c(F)cc1[C@H]1CCCNC1.Cl [Compound 50, (R)-3-(5-fluoro-2-methoxy-4-(trifluoromethyl)phenyl)piperidine hydrochloride] | 1800 nM

same assay, conditions: agonist potency, n = 3-4; read-out: 5-HT2C [pEC50 ± S.E.M.] (converted)

Compound | EC50
CCOc1cc(C(F)(F)F)c(OC)cc1[C@H]1CCCNC1.Cl [Compound 29, (R)-3-(2-ethoxy-5-methoxy-4-(trifluoromethyl)phenyl)piperidine hydrochloride] | 2750 nM
CCSc1cc([C@H]2CCCNC2)c(OC)cc1C(F)(F)F.Cl [Compound 46, (R)-3-(2-methoxy-5-(ethylthio)-4-(trifluoromethyl)phenyl)piperidine hydrochloride] | 1070 nM
COc1cc([C@@H]2CCCNC2)ccc1C(F)(F)F.Cl [Compound 49, (S)-3-(3-methoxy-4-(trifluoromethyl)phenyl)piperidine Hydrochloride] | 1260 nM
COc1cc(C(F)(F)F)c(F)cc1[C@H]1CCCNC1.Cl [Compound 50, (R)-3-(5-fluoro-2-methoxy-4-(trifluoromethyl)phenyl)piperidine hydrochloride] | 1780 nM
